Positions of bridges follow the written chain, without caps; N, C: chain ends. No end group written: not given here.
How the values were obtained:
[1] = test system: hair growth of C57BL/6 mouse; test: Hair growth test: hair growing area; format: in vivo
Description: This test was conducted to assess the influence on hair growth of C57BL/6 mouse when 4 types of test substances, HU024 (SEQ ID NO:2), HU025 (SEQ ID NO:3), HU026 (SEQ ID NO:4), and HU027 (SEQ ID NO:5), were applied to the skin for 14 days.
The group design was set to negative control (sterile water for injection G1), test substance HU024 (SEQ ID NO:2) 20 ug/head/day (G2), test substance HU024 (SEQ ID NO:2) 60 ug/head/day (G3), test substance HU025 (SEQ ID NO:3) 20 ug/head/day (G4), test substance HU025 (SEQ ID NO:3) 60 ug/head/day (G5), test substance HU026 (SEQ ID NO:4) 20 ug/head/day (G6), test substance HU026 (SEQ ID NO:4) 60 ug/head/day (G7), test substance HU027 (SEQ ID NO:5) 20 ug/head/day (G8), test substance HU027 (SEQ ID NO:5) 60 ug/head/day (G9) and positive control minoxyl 3% (G10) administered groups. Each group had 10 animals.
After the animal was put under anesthesia using zoletil (1 mL/kg, i.p), the back of the animal was primarily shaved using a depilator, and Veet depilatory was evenly applied on the back. After about 5 minutes, the applied site was cleaned up using gauze moistened with sterile water for injection. Only animal whose shaved back was scarlet in color was used for group separation. The test substance was applied to the same site daily once per day, 7 times per week for 14 days, and the test substance was evenly applied to the shaved site (on the back) by rubbing with a glass rod about 10 times.
The hair growing area (%) relative to the test substance-applied area was measured and determined, and Image analyzer program (Image Pro Plus ver. 6.3, Cybermetics, USA) was used to measure. […] Imaging was performed together with the measurements on the date when the hair area was measured. On the next day after the end of application, the animals were killed by CO2 gas, and hair on the hair growing area was removed by a depilator and hair weight was measured.
The measurement results were analyzed using SPSS (ver. 10.1K), Duncan t-test for weight changes was conducted through one-way analysis of variance, hair weight was compared between groups using Student's t-test, and hair growing area was compared between groups through nonparametric multiple comparison procedures Whitney-Mann methods. P<0.05 was determined to be statistically significant.

[2] = test system: glaucoma animal model having microbead-induced elevated intraocular pressure; test: Glaucoma test: intraocular pressure; format: in vivo, mouse; details: 20 ug/ml applied to eye once daily
Description: For control drug, Taflotan eye drops (Santen Pharmaceutical Co., Ltd.) were used, and for test drug, Taflotan eye drops+HU024 (SEQ ID NO:2) (sample 1), HU024 (SEQ ID NO:2) (sample 2), HU025 (SEQ ID NO:3) (sample 3), HU026 (SEQ ID NO:4) (sample 4), and HU027 (SEQ ID NO:5) (sample 5) were used, and testing was performed on glaucoma animal model having microbead-induced elevated intraocular pressure. In experimental animal model, Rompun solution for injection and zoletil were mixed and used to put the experimental animal under anesthesia, topical anesthetic Alcaine was applied to eye, 1×106 microbead/mL 1 μL was injected into anterior chamber using micro glass needle to induce an increase in intraocular pressure for 2 weeks (IOVS 2011 Vol. 52 36-).
The control drug and 5 samples were provided to the experimental animal having the elevated intraocular pressure for 2 weeks, 5 samples were applied to eye once daily, comparative verification of efficacy was performed, and intraocular pressure reduction and optic nerve cell in the retina was observed through administration for 4 weeks.
The intraocular pressure was measured using a contact-type intraocular pressure meter Tono lab's tonometer TV02 model. […] In 5-7 days after fluorescent probe injection, the eye was enucleated and fixed in 4% paraformaldehyde at room temperature for 4 hours. The retina was separated from choroid of the fixed eye and mounted on a slide. In each experimental group slide, optic nerve cell expressing fluorescence was detected using fluorescence microscope, images were taken at a magnification of ×40 and ×200, and data was collected.

[3] = test system: 2-degree burns of male SD rats; test: Burn treatment test: histopathology (H&E) of burn site; format: in vivo, SD (Sprague-Dawley) rats; details: score 0-4, 14th day after burn
Description: The experiment was carried out with 55 male SD (Sprague-Dawley) rats that were divided into […] groups: 5 rats for normal group (1 group, G1), 9-10 rats for negative control (1 group, G2), 30 rats for experimental group (3 groups, 10 rats in each group, G3, G4, G5), and 9-10 rats for positive control (1 group, G6). In the remaining groups except normal group, burned male SD rats was used for experiment. After SD rats were anesthesized, 2-degree burns, 2 cm in diameter, were induced on the SD rats using an aluminum electric soldering iron.
Test substance HU022 (SEQ ID NO:1) (G3, G4, G5), normal saline solution (G2) and Fiblast (G6) were applied to the skin of the burned male SD rats repeatedly once a day seven times a week for 7 days. Fiblast was applied to control group (G6) in 10 μg/dose/head, and the experimental group was divided into 3 groups and test substance was applied to each group in 3.3 μg/dose/head (G3), 10 μg/dose/head (G4), and 30 μg/dose/head (G5).
On the 14th day after burn, the burn site on the back was scraped from the dermis and fixed in 10% neutrally buffered formalin solution, and histopathology test was conducted through H&E staining.
With the measurement results, parametric comparison determined significance via Student's t-test and One-Way ANOVA, and significance testing relative to negative control was conducted. Furthermore, with the histopathology test results of burns, Kruskal-Wallis' H-test was conducted, and when significance between groups was identified, comparison between groups was performed through Mann-Whitney U-test. The computation program for statistics was SPSS 10.1 K. P<0.05 was determined to be statistically significant.

[4] = test system: skin; test: Safety assessment of test product on skin; details: use for 4 weeks, dermatologist's physical examination
Description: Women aged 30-65 having wrinkles around eyes were tested. […] They had second and third visits at the interval of 2 weeks after the start of use, and at each visit, were required to respond to various types of assessment and investigation defined in the experiment.
Furthermore, safety assessment was performed, and for safety of clinical test product, in all subjects having used the test product at least once, abnormal responses found at the second week and fourth week after use and abnormal responses reported during the test period were all used as safety assessment data of the product.

HU024 (RPTRGDCDLPEFCPG; disulfide 7-13; listed as Homo sapiens)
HAIR AREA (%) ([1]; 20 ug/head/day, Day 1): 0.02 ± 0.01%
HAIR AREA (%) ([1]; 20 ug/head/day, Day 4): 0.06 ± 0.04%
HAIR AREA (%) ([1]; 20 ug/head/day, Day 7): 0.44 ± 0.19%
HAIR AREA (%) ([1]; 20 ug/head/day, Day 10): 7.55 ± 2.56%
HAIR AREA (%) ([1]; 20 ug/head/day, Day 14): 67.34 ± 9.03%
HAIR AREA (%) ([1]; 60 ug/head/day, Day 1): 0.04 ± 0.04%
HAIR AREA (%) ([1]; 60 ug/head/day, Day 4): 0.00 ± 0.00%
HAIR AREA (%) ([1]; 60 ug/head/day, Day 7): 0.85 ± 0.75%
HAIR AREA (%) ([1]; 60 ug/head/day, Day 10): 6.56 ± 3.04%
HAIR AREA (%) ([1]; 60 ug/head/day, Day 14): 55.69 ± 12.45%
intraocular pressure change [2]: A reduction in intraocular pressure was observed

HU022: polypeptide consisting of 452nd-509th amino acids of ADAM 15 (GenBank AAH14566.1), 58 amino acids; commercial product (EYEGENE Inc.)
Epidermal regeneration ([3]; 3.3 μg/head/day): 0.1 ± 0.0 points
Eschar ([3]; 3.3 μg/head/day): 4.0 ± 0.0 points
Fibroplasia (connective tissue growth) ([3]; 3.3 μg/head/day): 3.1 ± 0.3 points
Infiltration of Inflammatory cells ([3]; 3.3 μg/head/day): 3.0 ± 0.0 points
Pilosebaceous (skin appendage regeneration) ([3]; 3.3 μg/head/day): 0.1 ± 0.3 points
Epidermal regeneration ([3]; 10 μg/head/day): 0.6 ± 0.5 points
Eschar ([3]; 10 μg/head/day): 3.2 ± 0.6 points
Fibroplasia (connective tissue growth) ([3]; 10 μg/head/day): 3.0 ± 0.5 points
Infiltration of Inflammatory cells ([3]; 10 μg/head/day): 3.0 ± 0.0 points
Pilosebaceous (skin appendage regeneration) ([3]; 10 μg/head/day): 0.9 ± 1.1 points
Epidermal regeneration ([3]; 30 μg/head/day): 0.6 ± 0.7 points
Eschar ([3]; 30 μg/head/day): 2.7 ± 0.7 points
Fibroplasia (connective tissue growth) ([3]; 30 μg/head/day): 3.3 ± 0.5 points
Infiltration of Inflammatory cells ([3]; 30 μg/head/day): 3.0 ± 0.0 points
Pilosebaceous (skin appendage regeneration) ([3]; 30 μg/head/day): 1.1 ± 1.0 points
abnormal response / skin irritation [4]: safe product not causing irritation to the skin
